# Source: patent publication US12459929B2 (Carmot Therapeutics Inc., priority 2021, dated 2025)
# Key:
# human GLP-1 receptor = biological target: T1, human GLP-1 receptor (Homo sapiens, UniProt P43220); assay: GLP-1R cAMP assay (HitHunter cAMP accumulation); assay type: cell-based; conditions: CHO cells stably overexpressing human GLP-1 receptor, 30 min, 20-point dose response in triplicate
# T1 construct: expressed in transfected cells
# Description: CAMP accumulation was measured in Chinese hamster ovary (CHO) cells stably overexpressing the human GLP-1 receptor using the HitHunter CAMP Assay for Small Molecules Kit (Eurofins). Briefly, cells were grown in Ham's F12 Nutrient Mix with 10% FBS, and lifted with Cell Dissociation Buffer, Enzyme free, PBS based (ThermoFisher). […] The anti-cAMP antibody reagent was then added to cells at a 1:2 ratio and 5 μL of mixture was seeded in 384-well small volume white assay plates, at 10,000 cells/well. Cells were then treated with 50 nL compound using an ECHO 550 acoustic dispenser (Labcyte) in a 20-point dose response format in triplicate for 30 min. Cells were then lysed, and detection reagents added according to the manufacturer's protocol. After overnight incubation, luminescence was measured using a Perkin Elmer Envision plate reader. Dose response curves were analyzed using GraphPad Prism 9.0.
# [1] = tested on: cynomolgus monkeys (Macaca fascicularis); assay: Intravenous glucose tolerance test (IVGTT) in cynomolgus monkeys; assay type: in vivo; conditions: fasted, test article 6 mg/mL IV bolus 1-6 min before IV glucose 0.5 g/kg, plasma insulin 0-60 min, FIG. 1
# Description: Intravenous Glucose Tolerance Test (IVGTT) in Cynomolgus Monkeys
# Aged ([…]) cynomolgus monkeys (Macaca fascicularis; N=4-5/test article) were fasted overnight and anesthetized with ketamine prior to the intravenous glucose tolerance test (IVGTT). The test articles were formulated at 6 mg/mL in vehicle (5% polyethylene glycol 400: 95% (12% (w/v) sulfobutylether-β-cyclodextrin in deionized water) (v/v)]) and administered by intravenous bolus into a peripheral vein 1-6 minutes prior to the IVGTT. The IVGTT was initiated by administration of an IV bolus of glucose (0.5 g/kg as a 50% glucose solution). Blood samples were collected from a peripheral vein 0, 1, 3, 5, 10, 20, 40 and 60 minutes upon completion of the IV bolus glucose injection. The blood samples were collected directly into potassium ethylene diamine tetra-acetic acid tubes and plasma separated by centrifugation at 2,500 g for 10 minutes within 30 minutes of collection. The plasma from all time points was analyzed for insulin concentrations (μU/mL) using a Cobas e411 Immunology analyzer. Insulin area-under-the-curve (AUC) was calculated using GraphPad Prism software (v 9).
# T1 sequence (P43220 24-463): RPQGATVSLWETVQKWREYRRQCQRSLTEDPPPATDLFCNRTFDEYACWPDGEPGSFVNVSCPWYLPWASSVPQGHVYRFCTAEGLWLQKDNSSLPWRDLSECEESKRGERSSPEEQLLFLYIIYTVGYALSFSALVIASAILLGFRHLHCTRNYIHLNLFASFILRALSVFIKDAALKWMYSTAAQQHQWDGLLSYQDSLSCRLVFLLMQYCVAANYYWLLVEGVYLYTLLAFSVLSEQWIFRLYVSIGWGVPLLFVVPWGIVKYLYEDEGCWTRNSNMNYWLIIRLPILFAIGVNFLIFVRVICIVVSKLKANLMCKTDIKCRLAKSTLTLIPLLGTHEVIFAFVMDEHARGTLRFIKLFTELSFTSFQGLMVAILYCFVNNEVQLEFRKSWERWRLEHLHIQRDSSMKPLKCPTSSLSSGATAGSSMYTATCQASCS
EC50 (human GLP-1 receptor) [nM],SMILES,insulin secretion / insulin AUC [1]
< 50,"CCn1cncc1Cn1c(CN2CCC([C@@H](F)c3cccc(COc4ccc(Cl)cc4C#N)c3)CC2)nc2ccc(C(=O)O)cc21 (single isomer, unassigned) [Example 260]",
< 50,"CCn1cncc1Cn1c(CN2CCC([C@H](F)c3cccc(COc4ccc(Cl)cc4C#N)c3)CC2)nc2ccc(C(=O)O)cc21 (single isomer, unassigned) [Example 263]",
,"CCn1cncc1Cn1c(CN2CCC(Oc3ccnc(COc4ccc(Cl)cc4C#N)c3)CC2)nc2ccc(C(=O)O)cc21 [Compound 171, 2-{[4-({2-[(4-chloro-2-cyanophenoxy)methyl]pyridin-4-yl}oxy)piperidin-1-yl]methyl}-1-[(1-ethyl-1H-imidazol-5-yl)methyl]-1H-1,3-benzodiazole-6-carboxylic acid]",an increase in insulin secretion was observed
< 50,O=C(O)c1ccc2nc(CN3CCC(Oc4cccc(COc5ccc(F)cc5Cl)c4)CC3)n(C[C@@H]3CCO3)c2c1 [Compound 207],
,O=C(O)c1ccc2nc(CN3CCC(Oc4ccnc(COc5ccc(F)cc5Cl)n4)CC3)n(C[C@@H]3CCO3)c2c1 [Compound 326],an increase in insulin secretion was observed
,O=C(O)c1ccc2nc(CN3CCC(Oc4ccnc(COc5ccc(C(F)(F)F)cc5F)n4)CC3)n(C[C@@H]3CCO3)c2c1 [Compound 338],an increase in insulin secretion was observed
< 50,"CN(c1ccnc(COc2ccc(Cl)cc2F)n1)C1CCN(Cc2nc3ccc(C(=O)O)cc3n2C[C@@H]2CCO2)CC1 [Compound 382, 2-{[4-({2-[(4-chloro-2-fluorophenoxy)methyl]pyrimidin-4-yl}(methyl)amino)piperidin-1-yl]methyl}-1-{[(2S)-oxetan-2-yl]methyl}-1H-1,3-benzodiazole-6-carboxylic acid]",
,"CCn1cncc1Cn1c(CN2CCC(Oc3ccnc(COc4ccc(Cl)cc4Cl)c3)CC2)nc2ccc(C(=O)O)cc21 [Example 145, 2-((4-((2-((2,4-Dichlorophenoxy)methyl)pyridin-4-yl)oxy)piperidin-1-yl)methyl)-1-((1-ethyl-1H-imidazol-5-yl)methyl)-1H-benzo[d]imidazole-6-carboxylic acid]",an increase in insulin secretion was observed
,"C[C@H]1C[C@@H](Oc2ccnc(COc3ccc(C#N)cc3F)n2)CCN1Cc1nc2ccc(C(=O)O)cc2n1C[C@@H]1CCO1 [Example 313, 2-(((2S,4S)-4-((2-((4-Cyano-2-fluorophenoxy)methyl)pyrimidin-4-yl)oxy)-2-methylpiperidin-1-yl)methyl)-1-(((S)-oxetan-2-yl)methyl)-1H-benzo[d]imidazole-6-carboxylic acid]",an increase in insulin secretion was observed
,"C[C@H]1C[C@@H](Oc2ccnc(COc3ccc(F)cc3C#N)n2)CCN1Cc1nc2ccc(C(=O)O)cc2n1C[C@@H]1CCO1 [Example 355, 2-(((2S,4S)-4-((2-((2-cyano-4-fluorophenoxy)methyl)pyrimidin-4-yl)oxy)-2-methylpiperidin-1-yl)methyl)-1-(((S)-oxetan-2-yl)methyl)-1H-benzo[d]imidazole-6-carboxylic acid]",an increase in insulin secretion was observed
< 50,"O=C(O)c1ccc2nc(CN3CCC(Nc4ccnc(COc5ccc(Cl)cc5F)n4)CC3)n(C[C@@H]3CCO3)c2c1 [Example 381, (S)-2-((4-((2-((4-Chloro-2-fluorophenoxy)methyl)pyrimidin-4-yl)amino)piperidin-1-yl)methyl)-1-(oxetan-2-ylmethyl)-1H-benzo[d]imidazole-6-carboxylic acid]",

SMILES,EC50 (human GLP-1 receptor) [nM],insulin secretion / insulin AUC [1]
"N#Cc1ccc(OCc2nccc(OC3C[C@H]4CC[C@@H](C3)N4Cc3nc4ccc(C(=O)O)cc4n3C[C@@H]3CCO3)n2)c(F)c1 (single isomer, unassigned) [Compound 488]",50 to 500,
